Laboratory results published in paper PMC12073785, “Design, Synthesis and Biological Evaluation of 3-Hydrazonoindolin-2-one Derivatives as Novel HIV-1 RNase H Inhibitors” (Molecules, 2025).

Experiments:
[1] = target: T1, HIV-1 RT-associated RNase H (Human immunodeficiency virus type 1 group M subtype B, UniProt P04585); experiment: HIV-1 RT-associated RNase H inhibition (fluorescent RNA/DNA hybrid); type: biochemical; details: for IC50: HIV-1 RT wt, average of three independent determinations, read-out: IC50, concentration required to inhibit 50% of in vitro RNase H activity; for Fold increase in RNase H inhibitory potency compared to compound 6a: IC50 ratio versus 6a; for Fold increase in RNase H inhibitory potency compared to compound 6t: IC50 ratio versus 6t
T1 construct: HIV-1 group M subtype B heterodimeric reverse transcriptase (RT) was expressed and purified; made in house; host or cells: Escherichia coli strain M15, p6HRT-Prot expression vector
Procedure: The tested compounds were initially dissolved in dimethyl sulfoxide (DMSO) at a concentration of 50 mM and subsequently serially diluted (ratio 1:3). The compounds were tested as previously described.
Briefly, a reaction mixture containing 50 mM Tris-HCl buffer pH 7.8, 6 mM MgCl2, 1 mM dithiothreitol (DTT), 80 mM KCl, 0.25 μM hybrid RNA/DNA. 25 μM of RNA/DNA hybrid 5′-GAUCUGAGCCUGGAGCU-Fluorescin-3′ (HPLC, dry, QC: Mass Check), 5′-Dabcyl-AGCTCCCAGGCTCAGATC-3′ (HPLC, dry, QC: Mass Check), and increasing concentrations of inhibitors was diluted in DMSO. The activity of the RNase H function associated with HIV-1 RT was quantified by measuring the linear portion of the dose–response curve. The reaction mixture was incubated at 37 °C for 10 min with a Victor Nivo 5 multilabel plate reader (model 1420-051, PerkinElmer, Waltham, MA, USA), and fluorescence signals were recorded at excitation/emission wavelengths of 490/528 nm. Based on the obtained fluorescence data, the inhibitory concentration 50 (IC50) of the target compounds was calculated by interpolation on a dose–response curve. Results are reported as average and standard deviation of at least two independent replicates in triplicate.

HIV-1 (strain IIIB) = experiment: Anti-HIV-1 (strain IIIB) activity in MT-4 cells, MTT assay; type: cell-based; details: for EC50: Human immunodeficiency virus 1, IIIB, MT4, protection of MT-4 cells against HIV-induced cytopathogenicity by 50%; for SI, selectivity index: ratio CC50/EC50, MT-4 cells
Procedure: (§1) The anti-HIV-1 (strain IIIB) activity evaluation in MT-4 cells was conducted using an optimized MTT assay. The cell lines were obtained from the laboratory (Prof. Erik De Clercq, Rega Institute for Medical Research, KU Leuven, Herestraat 49, Leuven, Belgium). Compounds were serially diluted (5-fold increments, starting from 10× concentration) and dispensed into 96-well plates (25 µL/well) via an automated Biomek 3000 workstation (Beckman Instruments, Fullerton, CA, USA). Parallel experimental groups included virus-infected (50 µL HIV inoculum, 100–300 TCID50) and mock-infected controls (50 µL culture medium). MT-4 cells were centrifuged (220× g, 5 min), resuspended to 6 × 10⁵ cells/mL, and seeded (50 µL/well). After a 5-day incubation, cell viability was quantified by measuring mitochondrial dehydrogenase-mediated MTT-to-formazan conversion using dual-wavelength spectrophotometry (540 nm primary, 690 nm reference). The 50% cytotoxic concentration (CC50) was calculated from triplicate median absorbance values, representing the compound concentration reducing mock-infected cell viability by 50%.

[2] = Cytotoxicity in mock-infected MT-4 cells, MTT assay; type: cell-based; details: human, mock-infected MT-4 cells; reduction of normal uninfected MT-4 cell viability by 50%
Procedure: as §1

[3] = target: T1, HIV-1 RT-associated RNase H; experiment: Kinetic analysis of RNase H inhibition, competition with RNA/DNA substrate; type: biochemical; details: for Mode of inhibition: Michaelis Menten and Lineweaver-Burk plots; for Ki: competition with RNA substrate
Source text: Based on the docking binding predictions, compound 6t and compound 11a were chosen for further characterization. To study the interaction between the chemical compounds and the enzyme in complex with the substrate, we evaluated the competition of compounds 6a and 11a with the RNA substrate (Figure 5). […] Given the results obtained, it is hypothesized that the binding between the inhibitor and the RT protein may modulate the interaction between the enzyme and the RNA substrate, resulting in an increased apparent KM and decreased apparent Vmax when increasing the concentration of the inhibitor.
Kinetic analysis of the DNA-polymerase independent RNase H activity was performed as already reported. Briefly, a reaction mixture containing 50 mM Tris-HCl buffer pH 7.8, 6 mM MgCl2, 1 mM DTT, 80 mM KCl, and increasing concentrations of hybrid RNA/DNA 5′-GAUCUGAGCCUGGGAGCU-Fluorescin-3′/5′-Dabcyl-AGCTCCCAGGCTCAGATC-3′ was incubated at 37 °C for 10 min with a Victor Nivo 5 multilabel plate reader (model 1420-051, PerkinElmer, Waltham, MA, USA), and fluorescence signals were recorded at excitation/emission wavelengths of 490/528 nm. Results were represented according to Michaelis Menten and Lineaweaver–Burke plots.

HIV-1 RT R448A = experiment: RNase H inhibition with HIV-1 RT R448A mutant versus RT wt; type: biochemical; details: HIV-1 RT R448A versus RT wt
Source text: Furthermore, to validate the docking binding prediction of the compounds in the active site of the RT, and the interaction with amino acid residue R448, which was predicted to stabilize the binding of the compounds through a hydrogen bond, we evaluated the activity of compounds 6t and 11a in parallel against the RT wt enzyme and the HIV-1 RT R448A mutant (Figure 6). […] The results confirmed the importance of residue R448 in the binding of inhibitors and validated the predicted binding site to the enzyme; indeed, the less pronounced effect of R448A mutation on 11a inhibitory activity might be explained with the additional hydrogen bound predicted to form between 11a and amino acid Q475 (Figure 6).

SMILES: O=C1Nc2c(F)cccc2C1=NNc1cc(=O)[nH]c(=O)[nH]1 [Compound 6k, 6-(2-(7-Fluoro-2-oxoindolin-3-ylidene)hydrazineyl)pyrimidine-2,4(1H,3H)-dione]
- IC50 [1]: > 100 µM

SMILES: O=C1Nc2cc(F)ccc2C1=NNc1cc(=O)[nH]c(=O)[nH]1 [Compound 6g, 6-(2-(6-Fluoro-2-oxoindolin-3-ylidene)hydrazineyl)pyrimidine-2,4(1H,3H)-dione]
- IC50 [1]: 56.8 ± 15.9 µM

SMILES: O=C1Nc2cc(Br)ccc2C1=NNc1cc(=O)[nH]c(=O)[nH]1 [Compound 6i, 6-(2-(6-Bromo-2-oxoindolin-3-ylidene)hydrazineyl)pyrimidine-2,4(1H,3H)-dione]
- IC50 [1]: 23.6 ± 1.11 µM

SMILES: O=C1Nc2cc(OC(F)(F)F)ccc2C1=NNc1cc(=O)[nH]c(=O)[nH]1 [Compound 6j, 6-(2-(2-Oxo-6-(trifluoromethoxy)indolin-3-ylidene)hydrazineyl)pyrimidine-2,4(1H,3H)-dione]
- IC50 [1]: 15.28 ± 0.01 µM

SMILES: O=C1Nc2cc(Cl)ccc2C1=NNc1cc(=O)[nH]c(=O)[nH]1 [Compound 6h, 6-(2-(6-Chloro-2-oxoindolin-3-ylidene)hydrazineyl)pyrimidine-2,4(1H,3H)-dione]
- IC50 [1]: > 100 µM

SMILES: Cc1ccc2c(c1)C(=NNc1cc(=O)[nH]c(=O)[nH]1)C(=O)N2 [Compound 6e, 6-(2-(5-Methyl-2-oxoindolin-3-ylidene)hydrazineyl)pyrimidine-2,4(1H,3H)-dione]
- IC50 [1]: > 100 µM

SMILES: COc1ccc2c(c1)NC(=O)C2=NNc1cc(=O)[nH]c(=O)[nH]1 [Compound 6q, 6-(2-(6-Methoxy-2-oxoindolin-3-ylidene)hydrazineyl)pyrimidine-2,4(1H,3H)-dione]
- IC50 [1]: > 100 µM

SMILES: O=C1Nc2cc(Br)c(Br)cc2C1=NNc1c[nH]c(=O)[nH]c1=O [Compound 11b, 5-(2-(5,6-Dibromo-2-oxoindolin-3-ylidene)hydrazineyl)pyrimidine-2,4(1H,3H)-dione]
- EC50 (HIV-1 (strain IIIB)): 44.9 µM
- SI, selectivity index (HIV-1 (strain IIIB)): 8
- IC50 [1]: 2.2 ± 0.2 µM
- Fold increase in RNase H inhibitory potency compared to compound 6a [1]: 40 fold
- Fold increase in RNase H inhibitory potency compared to compound 6t [1]: 4 fold
- CC50 at 5 days [2]: 349 µM

SMILES: O=C1Nc2cc(Cl)c(Cl)cc2C1=NNc1cc(=O)[nH]c(=O)[nH]1 [Compound 6t, 6-(2-(5,6-Dichloro-2-oxoindolin-3-ylidene)hydrazineyl)pyrimidine-2,4(1H,3H)-dione]
- EC50 (HIV-1 (strain IIIB)): 110 µM
- SI, selectivity index (HIV-1 (strain IIIB)): 3
- Mode of inhibition [3]: mixed model inhibitor
- Ki [3]: 2310 nM
- Vmax (apparent) ([3]; inhibitor 4 μM): 124.2
- Vmax (apparent) ([3]; inhibitor 12 μM): 104.6
- Shift of the inhibition curve (loss of potency) (HIV-1 RT R448A): four-fold
- IC50 [1]: 7.85 ± 0.55 µM
- Fold increase in RNase H inhibitory potency compared to compound 6a [1]: ~10 fold
- CC50 at 5 days [2]: 294 µM

SMILES: Cc1cccc2c1NC(=O)C2=NNc1cc(=O)[nH]c(=O)[nH]1 [Compound 6n, 6-(2-(7-Methyl-2-oxoindolin-3-ylidene)hydrazineyl)pyrimidine-2,4(1H,3H)-dione]
- IC50 [1]: 25.5 ± 1.37 µM

SMILES: O=C1Nc2c(Br)cccc2C1=NNc1cc(=O)[nH]c(=O)[nH]1 [Compound 6m, 6-(2-(7-Bromo-2-oxoindolin-3-ylidene)hydrazineyl)pyrimidine-2,4(1H,3H)-dione]
- IC50 [1]: 43.8 ± 7.92 µM

SMILES: O=C1Nc2cc(F)c(F)cc2C1=NNc1cc(=O)[nH]c(=O)[nH]1 [Compound 6s, 6-(2-(5,6-Difluoro-2-oxoindolin-3-ylidene)hydrazineyl)pyrimidine-2,4(1H,3H)-dione]
- IC50 [1]: 64.9 ± 0.77 µM

SMILES: O=C1Nc2c(Cl)cccc2C1=NNc1cc(=O)[nH]c(=O)[nH]1 [Compound 6l, 6-(2-(7-Chloro-2-oxoindolin-3-ylidene)hydrazineyl)pyrimidine-2,4(1H,3H)-dione]
- IC50 [1]: 46.6 ± 3.25 µM

SMILES: COc1ccc2c(c1)C(=NNc1cc(=O)[nH]c(=O)[nH]1)C(=O)N2 [Compound 6p, 6-(2-(5-Methoxy-2-oxoindolin-3-ylidene)hydrazineyl)pyrimidine-2,4(1H,3H)-dione]
- IC50 [1]: > 100 µM

SMILES: COc1cccc2c1NC(=O)C2=NNc1cc(=O)[nH]c(=O)[nH]1 [Compound 6r, 6-(2-(7-Methoxy-2-oxoindolin-3-ylidene)hydrazineyl)pyrimidine-2,4(1H,3H)-dione]
- IC50 [1]: > 100 µM

SMILES: O=C1Nc2c(cccc2C(F)(F)F)C1=NNc1cc(=O)[nH]c(=O)[nH]1 [Compound 6o, 6-(2-(2-Oxo-7-(trifluoromethyl)indolin-3-ylidene)hydrazineyl)pyrimidine-2,4(1H,3H)-dione]
- IC50 [1]: 24.1 ± 7.02 µM

SMILES: O=C1Nc2ccc(F)cc2C1=NNc1cc(=O)[nH]c(=O)[nH]1 [Compound 6a, 6-(2-(5-Fluoro-2-oxoindolin-3-ylidene)hydrazineyl)pyrimidine-2,4(1H,3H)-dione]
- IC50 [1]: 81.2 ± 11.4 µM

SMILES: Cc1cc(C)c2c(c1)C(=NNc1cc(=O)[nH]c(=O)[nH]1)C(=O)N2 [Compound 6v, 6-(2-(5,7-Dimethyl-2-oxoindolin-3-ylidene)hydrazineyl)pyrimidine-2,4(1H,3H)-dione]
- IC50 [1]: 23.6 ± 3.89 µM

SMILES: O=C1Nc2ccc(Br)cc2C1=NNc1cc(=O)[nH]c(=O)[nH]1 [Compound 6d, 6-(2-(5-Bromo-2-oxoindolin-3-ylidene)hydrazineyl)pyrimidine-2,4(1H,3H)-dione]
- IC50 [1]: > 100 µM

SMILES: O=C1Nc2ccc(OC(F)(F)F)cc2C1=NNc1cc(=O)[nH]c(=O)[nH]1 [Compound 6f, 6-(2-(2-Oxo-5-(trifluoromethoxy)indolin-3-ylidene)hydrazineyl)pyrimidine-2,4(1H,3H)-dione]
- IC50 [1]: 8.94 ± 1.43 µM

SMILES: O=C1Nc2ccc(Cl)cc2C1=NNc1cc(=O)[nH]c(=O)[nH]1 [Compound 6c, 6-(2-(5-Chloro-2-oxoindolin-3-ylidene)hydrazineyl)pyrimidine-2,4(1H,3H)-dione]
- IC50 [1]: 58.8 ± 2.4 µM

SMILES: O=C1Nc2cc(Cl)c(Cl)cc2C1=NNc1c[nH]c(=O)[nH]c1=O [Compound 11a, 5-(2-(5,6-Dichloro-2-oxoindolin-3-ylidene)hydrazineyl)pyrimidine-2,4(1H,3H)-dione]
- EC50 (HIV-1 (strain IIIB)): 39 µM
- SI, selectivity index (HIV-1 (strain IIIB)): 10
- Mode of inhibition [3]: mixed model inhibitor
- Ki [3]: 550 nM
- Vmax (apparent) ([3]; inhibitor 1 μM): 105.8
- Vmax (apparent) ([3]; inhibitor 2 μM): 98.24
- Vmax (apparent) ([3]; inhibitor 4 μM): 41.29
- Shift of the inhibition curve (loss of potency) (HIV-1 RT R448A): two-fold
- IC50 [1]: 1.9 ± 0.01 µM
- Fold increase in RNase H inhibitory potency compared to compound 6a [1]: 40 fold
- Fold increase in RNase H inhibitory potency compared to compound 6t [1]: 4 fold
- CC50 at 5 days [2]: 402 µM

SMILES: O=C1Nc2cc(Br)c(Br)cc2C1=NNc1cc(=O)[nH]c(=O)[nH]1 [Compound 6u, 6-(2-(5,6-Dibromo-2-oxoindolin-3-ylidene)hydrazineyl)pyrimidine-2,4(1H,3H)-dione]
- IC50 [1]: 11.8 ± 0.81 µM

SMILES: O=C1Nc2ccccc2C1=NNc1cc(=O)[nH]c(=O)[nH]1 [Compound 6b, 6-(2-(2-Oxoindolin-3-ylidene)hydrazineyl)pyrimidine-2,4(1H,3H)-dione]
- IC50 [1]: > 100 µM
